{
  "source": "patent US20230212533A1",
  "about": "(THE REGENTS OF THE UNIVERSITY OF MICHIGAN, priority 2020, published 2023)",
  "key": {"[1]": {"system": "L-6-hydroxynicotine oxidase (LHNO, 3NG7), wild type, SEQ ID NO:13", "settings": "cited from earlier work; for kcat/Km: wild-type LHNO"}, "[2]": {"biological_target": "T1, Pseudomonas putida S16 nicotine oxidoreductase NicA2, wild type, SEQ ID NO:131 (Pseudomonas putida, UniProt F8G0P2)", "method": "All stopped-flow experiments were performed in 40 mM HEPES-KOH, pH 7.5, 100 mM NaCl, 10% glycerol at 4° C. NicA2 and CycN solutions were made anaerobic in glass tonometers by repeated cycles with vacuum and anaerobic argon^42. When needed, NicA2's FAD was reduced in the anaerobic tonometer by titrating with a dithionite solution housed in a gas-tight Hamilton syringe. The dithionite solution was slowly added up to the point where NicA2's flavin reached the fully-reduced hydroquinone state, and the redox status of the flavin was spectrophotometrically monitored during the titration using a Shimadzu UV-1900 UV-VIS spectrophotometer. […] Buffer containing O2 at specific concentrations was prepared by sparging different O2/N2 gas ratios through buffer in a gas-tight syringe for at least 15 minutes at room temperature. The various O2/N2 gas ratios were prepared from O2 and N2 gas cylinders using a Maxtec MaxBlend 2 gas mixer, and the dissolved O2 concentration in the buffer solution was calculated using a Henry's law constant for O2 of 770 atm M^−1.\nStopped-flow experiments were conducted using a TgK Scientific SF-61 DX2 KinetAsyst stopped-flow instrument that had been previously equilibrated with a glucose/glucose oxidase solution to make the internal components of the system anaerobic. […] The reaction of NicA2-Flred with O2 was monitored using the instrument's multi-wavelength CCD detector (1.6 ms data interval time). […] Kinetic traces were fit to sums of exponentials using KaleidaGraph (Synergy Software) to determine observed rate constants.\nWe next monitored the reaction of NicA2-Flred with O2 in the oxidative half reaction via stopped-flow experiments."}, "[3]": {"system": "Pseudomonas putida S16 nicotine oxidoreductase NicA2, wild type, SEQ ID NO:131", "settings": "in vitro, cited from earlier work"}, "[4]": {"biological_target": "T1, Pseudomonas putida S16 nicotine oxidoreductase NicA2, wild type, SEQ ID NO:131", "settings": "WT P. putida S16; about 5 mM nicotine degraded by about 3.5 nM NicA2 in 16 hours", "method": "Both wild-type and ΔcycN strains were grown overnight in LB. The next day, these cultures were diluted to OD 0.1 in 5 mL M9 salts+0.4% glycerol and allowed to grow for 2 hours. […] From then on, the cultures were sampled at 2, 4, 8, 24, and 49 hours. 200 μL of culture was extracted at each time point and spun down at 16,000 g for 10 minutes. The supernatant was isolated, and 100 μL supernatant was mixed with 300 μL methanol to prepare HPLC samples. The cell pellet was resuspended in 100 μL Bacterial Protein Extraction Reagent (B-PER; Thermo Fisher) and allowed to incubate at room temperature for 15 minutes to complete lysis. After this time had elapsed, 25 μL of 5× reducing gel loading buffer was added to each sample.\nSamples for HPLC were further clarified by spinning at 16,000 g for 30 minutes. 100 μL of each clarified sample was placed into autosampler vials. […] Samples and standards were within the linear range of detection, and the absorbance peaks were integrated for quantification.\nSamples for western blot analysis were boiled for 5 minutes. […] Protein bands were quantified using LI-COR Odyssey software, and the NicA2 standard curve was used to determine the linear range of detection and concentration of NicA2 at each time point from the experiment."}, "[5]": {"biological_target": "T1, Pseudomonas putida S16 nicotine oxidoreductase NicA2, wild type, SEQ ID NO:131", "settings": "anaerobic, pH 7.5, 4° C., 450 nm", "method": "All stopped-flow experiments were performed in 40 mM HEPES-KOH, pH 7.5, 100 mM NaCl, 10% glycerol at 4° C. NicA2 and CycN solutions were made anaerobic in glass tonometers by repeated cycles with vacuum and anaerobic argon^42. When needed, NicA2's FAD was reduced in the anaerobic tonometer by titrating with a dithionite solution housed in a gas-tight Hamilton syringe. The dithionite solution was slowly added up to the point where NicA2's flavin reached the fully-reduced hydroquinone state, and the redox status of the flavin was spectrophotometrically monitored during the titration using a Shimadzu UV-1900 UV-VIS spectrophotometer. […] The various O2/N2 gas ratios were prepared from O2 and N2 gas cylinders using a Maxtec MaxBlend 2 gas mixer, and the dissolved O2 concentration in the buffer solution was calculated using a Henry's law constant for O2 of 770 atm M^−1.\nStopped-flow experiments were conducted using a TgK Scientific SF-61 DX2 KinetAsyst stopped-flow instrument that had been previously equilibrated with a glucose/glucose oxidase solution to make the internal components of the system anaerobic. […] The reaction of NicA2-Flred with O2 was monitored using the instrument's multi-wavelength CCD detector (1.6 ms data interval time). […]"}, "Escherichia coli": {"system": "Escherichia coli", "assay": "toxicity to E. coli", "format": "cell-based", "description": "(§1) Directed evolution is a powerful means to improve enzyme function. […] The experiments are performed using the fast-growing model organism, Escherichia coli, which permits evaluation of many variants of NicA2 for performance-enhancing mutations. […] Identification of these variants is expected to reveal the molecular determinants of wild-type NicA2's low O2-dependent activity.\nas §1, with “were” for “are”, “permitted” for “permits”"}, "[6]": {"biological_target": "T1, Pseudomonas putida S16 nicotine oxidoreductase NicA2, wild type, SEQ ID NO:131", "settings": "estimated from reported doubling time of one hour"}, "[7]": {"settings": "cited from earlier work"}},
  "note": "Values joined by “and” are separate entries in the source; they are usually repeats but may differ in a detail not shown here. Equal values may be shown once. Read-outs that look alike come from different tables or passages of the source.",
  "data": [
    {"smiles": "CN1CCC[C@H]1c1ccc(O)nc1", "note": "[L-6-hydroxynicotine]", "values": [
      {"measurement": "kcat", "setting": "[1]; O2 as the electron acceptor for flavin oxidation, substrate L-6-hydroxynicotine", "result": 78, "unit": "s⁻¹"},
      {"measurement": "kcat/Km", "setting": "[1]", "result": 600000, "unit": "M⁻¹ s⁻¹"}
    ]},
    {"smiles": "CN1CCC[C@H]1c1cccnc1", "note": "[L-nicotine]", "values": [
      {"measurement": "kcat/Km", "setting": "[1]", "result": 42, "unit": "M⁻¹ s⁻¹"}
    ]},
    {"smiles": "O=O", "note": "[O2, molecular oxygen]", "values": [
      {"measurement": "kobs of NicA2-Flred oxidation by O2", "setting": "[2]; at ~250 μM O2, calculated from bimolecular rate constant", "result": 0.007, "unit": "s⁻¹"},
      {"measurement": "bimolecular rate constant for flavin oxidation by O2 (kox^O2)", "setting": "[2]; pH 7.5, 4° C., 450 nm", "result": "27 ± 1 M⁻¹ s⁻¹ and 27 M⁻¹ s⁻¹"},
      {"measurement": "kcat", "setting": "[1]; reaction with oxygen", "result": 78, "unit": "s⁻¹"}
    ]},
    {"smiles": "CN1CCC[C@H]1c1cccnc1", "note": "[nicotine]", "values": [
      {"measurement": "turnover number (O2-dependent nicotine turnover)", "setting": "[3]; O2 as electron acceptor", "result": 0.007, "unit": "s⁻¹"},
      {"measurement": "kcat (conversion of nicotine to pseudooxynicotine)", "setting": "[3]; oxygen as electron acceptor", "result": 0.007, "unit": "s⁻¹"},
      {"measurement": "in vivo turnover rate", "setting": "[4]", "result": "about 24 s^−1"},
      {"measurement": "kobs (fastest phase, reduction of NicA2's FAD by nicotine)", "setting": "[5]", "result": "about 180 s^−1"},
      {"measurement": "concentration toxic to E. coli", "setting": "Escherichia coli; about this level or higher", "result": "about 1 mg/mL"},
      {"measurement": "in vivo turnover rate (kcat)", "setting": "[6]", "result": 1, "unit": "s⁻¹"},
      {"measurement": "kcat for degrading nicotine relative to NicA2", "setting": "[1]; oxygen dependent reaction", "result": 5, "unit": "fold"}
    ]},
    {"smiles": "CNCCCC(=O)c1cccnc1", "note": "[pseudooxynicotine]", "values": [
      {"measurement": "concentration up to which non-toxic to E. coli", "setting": "Escherichia coli; e. coli culture", "result": "at least 5 mg/mL"},
      {"measurement": "addictiveness in animal models", "setting": "[7]", "result": "non-addictive"},
      {"measurement": "toxicity in animal models", "setting": "[7]", "result": "non-toxic"}
    ]}
  ]
}
